Experimental data: patent US8415469B2, “Compounds and methods for kinase modulation, and indications therefor” (Plexxikon Inc., priority 2005, dated 2013)

Key:
Type in all cases: biochemical
B-Raf = biological target: T1, B-Raf (Homo sapiens, UniProt P15056); assay: AlphaScreen kinase assay, B-Raf; settings: read-out: IC50, activity toward kinase B-Raf
T1 construct: purchased Upstate Biotechnology

B-Raf V600E = biological target: T2, B-Raf V600E (Homo sapiens, UniProt P15056, V600E); assay: AlphaScreen kinase assay, B-Raf V600E; settings: read-out: IC50, activity toward kinase B-Raf V600E
T2 construct: P4254. pFastBacBD-CDC37 BRAF D437-K722-X, V600E; His6 with pFastBac HT leader (TEV site) (N); made in house; host or cells: Sf9 (baculovirus; chaperone CDC37 co-expressed)

Btk = biological target: T3, Btk (Homo sapiens, UniProt Q06187); assay: Z'-Lyte FRET kinase assay (Invitrogen), Btk; settings: read-out: IC50, activity toward kinase Btk
T3 construct: purchased Invitrogen (assay run by Invitrogen)

EphB2 = biological target: T4, EphB2 (Homo sapiens, UniProt P29323); assay: Z'-Lyte FRET kinase assay (Invitrogen), EphB2; settings: read-out: IC50, activity toward kinase EphB2
T4 construct: purchased Invitrogen (assay run by Invitrogen)
T4 sequence (P29323 19-1055): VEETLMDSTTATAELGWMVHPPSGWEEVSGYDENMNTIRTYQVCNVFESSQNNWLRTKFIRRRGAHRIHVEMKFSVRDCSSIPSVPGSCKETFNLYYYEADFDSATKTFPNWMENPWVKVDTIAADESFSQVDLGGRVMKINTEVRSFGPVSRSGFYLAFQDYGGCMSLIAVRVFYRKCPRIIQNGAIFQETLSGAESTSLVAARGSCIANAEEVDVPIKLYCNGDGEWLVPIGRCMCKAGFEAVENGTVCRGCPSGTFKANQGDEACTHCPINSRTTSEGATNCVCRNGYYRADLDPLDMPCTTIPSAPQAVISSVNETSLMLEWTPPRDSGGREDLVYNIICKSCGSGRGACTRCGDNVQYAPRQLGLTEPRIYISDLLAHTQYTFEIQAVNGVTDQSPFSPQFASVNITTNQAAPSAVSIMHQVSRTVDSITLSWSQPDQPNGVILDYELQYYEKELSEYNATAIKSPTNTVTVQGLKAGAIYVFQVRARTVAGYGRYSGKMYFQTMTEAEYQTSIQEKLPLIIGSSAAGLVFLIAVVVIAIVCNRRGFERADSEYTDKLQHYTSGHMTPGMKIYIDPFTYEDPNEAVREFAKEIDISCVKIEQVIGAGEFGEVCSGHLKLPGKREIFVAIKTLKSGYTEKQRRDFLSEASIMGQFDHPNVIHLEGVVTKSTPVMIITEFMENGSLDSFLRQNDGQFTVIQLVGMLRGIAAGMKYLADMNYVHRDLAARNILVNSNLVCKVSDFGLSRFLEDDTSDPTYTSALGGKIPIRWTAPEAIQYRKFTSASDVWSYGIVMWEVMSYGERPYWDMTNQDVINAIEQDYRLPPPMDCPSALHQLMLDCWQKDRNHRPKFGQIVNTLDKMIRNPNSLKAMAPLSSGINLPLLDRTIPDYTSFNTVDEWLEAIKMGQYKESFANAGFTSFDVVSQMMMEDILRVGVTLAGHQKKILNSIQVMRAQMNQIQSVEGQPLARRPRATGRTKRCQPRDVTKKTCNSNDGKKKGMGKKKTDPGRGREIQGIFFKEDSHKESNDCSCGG
Outline: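 Z′-Lyte FRET assay: kinase phosphorylates 2 μM peptide substrate at 10 μM ATP in 50 mM HEPES pH 7.5, 50 mM MgCl2, 5 mM EGTA, 0.05% BRIJ-35, 1% DMSO, 1 h at room temperature. Protease development 1 h; coumarin/fluorescein emission ratio gives phosphorylation extent over compound concentration curves.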

Kdr = biological target: T5, Kdr (Homo sapiens, UniProt P35968); assay: Z'-Lyte FRET kinase assay (Invitrogen), Kdr; settings: read-out: IC50, activity toward kinase Kdr
T5 construct: purchased Invitrogen (assay run by Invitrogen)

Kit = biological target: T6, Kit (Homo sapiens, UniProt P10721); assay: AlphaScreen kinase assay, Kit; settings: read-out: IC50, activity toward kinase Kit
T6 construct: P1332.N6 BI PTP KIT M552-K948-X COD; His6 (N); made in house; host or cells: E. coli (PTP1B co-expressed)
T6 sequence (P10721 with tags, fused parts or gaps): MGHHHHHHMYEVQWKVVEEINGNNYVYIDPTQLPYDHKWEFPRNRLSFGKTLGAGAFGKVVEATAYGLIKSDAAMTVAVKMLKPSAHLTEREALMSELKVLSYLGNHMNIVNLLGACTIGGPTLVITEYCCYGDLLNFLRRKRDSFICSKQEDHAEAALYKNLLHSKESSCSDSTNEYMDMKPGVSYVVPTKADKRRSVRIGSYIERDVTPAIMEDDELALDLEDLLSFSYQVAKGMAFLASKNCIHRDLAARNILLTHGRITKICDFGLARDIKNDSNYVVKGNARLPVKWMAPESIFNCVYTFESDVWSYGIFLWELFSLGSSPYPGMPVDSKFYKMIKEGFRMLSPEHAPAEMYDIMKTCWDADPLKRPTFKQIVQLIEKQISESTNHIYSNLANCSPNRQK

T2 sequence (P15056 with tags, fused parts or gaps V600E): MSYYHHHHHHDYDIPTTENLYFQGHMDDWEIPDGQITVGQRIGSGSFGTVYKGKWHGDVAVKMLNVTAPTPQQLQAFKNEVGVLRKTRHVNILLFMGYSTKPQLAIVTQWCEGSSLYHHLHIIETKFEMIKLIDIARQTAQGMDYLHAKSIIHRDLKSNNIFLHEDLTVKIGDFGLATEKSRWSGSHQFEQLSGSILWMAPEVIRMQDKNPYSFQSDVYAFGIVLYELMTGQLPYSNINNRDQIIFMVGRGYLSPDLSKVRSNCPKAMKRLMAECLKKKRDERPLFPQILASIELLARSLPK
T5 sequence (P35968 20-1356): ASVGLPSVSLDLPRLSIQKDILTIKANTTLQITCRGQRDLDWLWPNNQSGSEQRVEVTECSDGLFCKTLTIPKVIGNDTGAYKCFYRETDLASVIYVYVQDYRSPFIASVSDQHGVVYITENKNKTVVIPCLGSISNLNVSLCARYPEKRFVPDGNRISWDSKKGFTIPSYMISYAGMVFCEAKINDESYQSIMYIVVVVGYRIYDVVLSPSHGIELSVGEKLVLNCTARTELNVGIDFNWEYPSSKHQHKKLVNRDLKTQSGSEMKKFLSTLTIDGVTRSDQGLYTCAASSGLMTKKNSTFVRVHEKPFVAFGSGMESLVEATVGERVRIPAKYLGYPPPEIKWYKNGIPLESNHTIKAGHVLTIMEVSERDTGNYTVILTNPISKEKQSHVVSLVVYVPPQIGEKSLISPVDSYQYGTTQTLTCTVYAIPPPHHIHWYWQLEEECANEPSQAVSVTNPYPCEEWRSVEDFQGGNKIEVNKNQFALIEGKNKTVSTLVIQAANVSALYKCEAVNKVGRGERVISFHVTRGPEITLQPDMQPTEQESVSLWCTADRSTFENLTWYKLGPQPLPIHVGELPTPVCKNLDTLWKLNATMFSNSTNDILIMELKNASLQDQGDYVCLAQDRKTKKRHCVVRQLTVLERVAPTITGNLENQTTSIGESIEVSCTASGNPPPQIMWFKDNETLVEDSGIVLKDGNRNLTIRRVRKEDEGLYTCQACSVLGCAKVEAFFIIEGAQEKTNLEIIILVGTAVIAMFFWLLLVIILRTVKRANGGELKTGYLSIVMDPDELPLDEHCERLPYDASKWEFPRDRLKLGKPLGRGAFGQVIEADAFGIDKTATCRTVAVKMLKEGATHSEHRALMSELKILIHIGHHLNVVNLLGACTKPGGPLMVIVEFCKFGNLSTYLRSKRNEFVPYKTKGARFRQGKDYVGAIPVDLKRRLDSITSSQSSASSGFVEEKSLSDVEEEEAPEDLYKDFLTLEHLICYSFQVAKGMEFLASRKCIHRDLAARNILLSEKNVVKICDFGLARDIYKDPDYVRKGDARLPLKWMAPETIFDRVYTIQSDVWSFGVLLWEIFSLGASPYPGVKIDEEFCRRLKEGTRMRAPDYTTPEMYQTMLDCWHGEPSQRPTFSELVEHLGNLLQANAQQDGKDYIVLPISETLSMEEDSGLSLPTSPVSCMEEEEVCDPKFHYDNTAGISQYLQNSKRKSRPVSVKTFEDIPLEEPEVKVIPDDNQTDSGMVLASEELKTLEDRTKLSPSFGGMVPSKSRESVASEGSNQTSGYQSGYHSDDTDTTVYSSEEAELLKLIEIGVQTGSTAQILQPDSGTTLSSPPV
T3 sequence (Q06187 whole entry): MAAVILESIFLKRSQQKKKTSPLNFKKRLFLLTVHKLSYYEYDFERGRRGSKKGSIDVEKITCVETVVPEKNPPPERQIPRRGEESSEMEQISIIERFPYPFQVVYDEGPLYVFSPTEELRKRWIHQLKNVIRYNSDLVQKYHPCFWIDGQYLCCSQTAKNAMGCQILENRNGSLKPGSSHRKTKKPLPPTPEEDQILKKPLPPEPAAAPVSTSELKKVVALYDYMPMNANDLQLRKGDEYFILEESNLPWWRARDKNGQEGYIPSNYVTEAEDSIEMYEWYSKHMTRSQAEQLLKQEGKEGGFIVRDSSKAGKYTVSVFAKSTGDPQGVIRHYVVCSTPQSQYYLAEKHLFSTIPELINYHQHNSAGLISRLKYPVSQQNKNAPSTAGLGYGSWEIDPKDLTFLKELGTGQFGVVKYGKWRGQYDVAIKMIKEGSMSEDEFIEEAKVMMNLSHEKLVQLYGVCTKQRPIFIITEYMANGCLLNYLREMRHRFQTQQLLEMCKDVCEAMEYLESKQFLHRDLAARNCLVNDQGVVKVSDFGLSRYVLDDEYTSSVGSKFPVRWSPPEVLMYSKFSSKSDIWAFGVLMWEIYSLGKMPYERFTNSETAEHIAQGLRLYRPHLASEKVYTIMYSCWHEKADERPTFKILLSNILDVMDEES
T1 sequence (P15056 whole entry): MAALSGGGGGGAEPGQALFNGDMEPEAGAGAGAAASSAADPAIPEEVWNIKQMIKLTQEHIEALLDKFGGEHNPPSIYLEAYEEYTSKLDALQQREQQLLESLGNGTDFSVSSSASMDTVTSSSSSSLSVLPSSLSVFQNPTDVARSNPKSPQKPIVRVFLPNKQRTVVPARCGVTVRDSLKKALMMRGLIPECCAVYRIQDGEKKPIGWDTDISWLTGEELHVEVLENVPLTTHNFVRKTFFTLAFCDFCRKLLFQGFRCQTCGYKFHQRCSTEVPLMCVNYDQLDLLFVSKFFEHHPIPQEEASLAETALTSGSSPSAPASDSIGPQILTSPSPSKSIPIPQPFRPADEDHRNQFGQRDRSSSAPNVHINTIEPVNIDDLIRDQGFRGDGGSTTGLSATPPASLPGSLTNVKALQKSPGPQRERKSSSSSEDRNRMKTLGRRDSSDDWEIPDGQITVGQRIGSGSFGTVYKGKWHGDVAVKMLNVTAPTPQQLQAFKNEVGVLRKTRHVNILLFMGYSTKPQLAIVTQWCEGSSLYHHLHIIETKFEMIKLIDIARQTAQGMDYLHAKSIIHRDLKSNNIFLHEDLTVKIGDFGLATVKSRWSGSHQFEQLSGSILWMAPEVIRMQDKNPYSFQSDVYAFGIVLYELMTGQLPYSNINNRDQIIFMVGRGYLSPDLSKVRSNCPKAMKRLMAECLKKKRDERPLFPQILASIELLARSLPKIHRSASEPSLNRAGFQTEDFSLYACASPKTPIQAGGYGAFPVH

| IC50 (B-Raf) [µM] | IC50 (B-Raf V600E) [µM] | IC50 (Btk) [µM] | IC50 (EphB2) [µM] | IC50 (Kdr) [µM] | IC50 (Kit) [µM] | SMILES |
| --- | --- | --- | --- | --- | --- | --- |
| ≤ 10 | ≤ 10 | ≤ 10 | ≤ 10 | ≤ 10 | ≤ 10 | O=C(c1cccc(O)c1F)c1c[nH]c2ncc(-c3cccnc3)cc12 [Compound P-0027, (2-Fluoro-3-hydroxy-phenyl)-(5-pyridin-3-yl-1H-pyrrolo[2,3-b]pyridin-3-yl)-methanone] |
| ≤ 10 | ≤ 10 | ≤ 10 | ≤ 10 | ≤ 10 | ≤ 10 | O=C(c1ccc(O)cc1Cl)c1c[nH]c2ncccc12 [Compound P-0021] |
| ≤ 10 | ≤ 10 | ≤ 10 | ≤ 10 | ≤ 10 | ≤ 10 | Cc1c(O)cccc1C(=O)c1c[nH]c2ncc(-c3cccnc3)cc12 [Compound P-0006, (3-Hydroxy-2-methyl-phenyl)-(5-pyridin-3-yl-1H-pyrrolo[2,3b]pyridin-3-yl)-methanone] |
| ≤ 10 | ≤ 10 | ≤ 10 | ≤ 10 | ≤ 10 | ≤ 10 | O=C(c1cc(O)ccc1F)c1c[nH]c2ncccc12 [Compound P-0005] |
| ≤ 10 | ≤ 10 | ≤ 10 | ≤ 10 | ≤ 10 | ≤ 10 | Cc1c(O)cccc1C(=O)c1c[nH]c2ncc(-c3ccccc3)cc12 [Compound P-0016, (3-Hydroxy-2-methyl-phenyl)-(5-phenyl-1H-pyrrolo[2,3b]pyridin-3-yl)-methanone] |
| ≤ 10 | ≤ 10 | ≤ 10 | ≤ 10 | ≤ 10 | ≤ 10 | CS(=O)(=O)c1cccc(-c2cnc3[nH]cc(C(=O)c4c(F)ccc(F)c4F)c3c2)c1 [Compound P-0102, [5-(3-Methanesulfonyl-phenyl)-1H-pyrrolo[2,3-b]pyridin-3-yl]-(2,3,6-trifluoro-phenyl)-methanone] |
| ≤ 10 | ≤ 10 | ≤ 10 | ≤ 10 | ≤ 10 | ≤ 10 | Cc1ccc(F)cc1C(=O)c1c[nH]c2ncc(-c3ccc(C(N)=O)cc3)cc12 [Compound P-0050] |
| ≤ 10 | ≤ 10 | ≤ 10 | ≤ 10 | ≤ 10 | ≤ 10 | O=C(c1cccc(O)c1F)c1c[nH]c2ncc(Br)cc12 [Compound P-0067, (5-bromo-1H-pyrrolo[2,3-b]pyridin-3-yl)-(2-fluoro-3-hydroxy-phenyl)-methanone] |
| ≤ 10 | ≤ 10 | ≤ 10 | ≤ 10 | ≤ 10 | ≤ 10 | O=C(c1cccc(O)c1)c1c[nH]c2ncc(Br)cc12 [Compound P-0019] |
| ≤ 10 | ≤ 10 | ≤ 10 | ≤ 10 | ≤ 10 | ≤ 10 | Cn1cc(C(F)(F)F)c(-c2ccc(S(=O)(=O)NCc3c[nH]c4ncccc34)s2)n1 [Compound P-0041] |
| ≤ 10 | ≤ 10 | ≤ 10 | ≤ 10 | ≤ 10 |  | O=C(c1cc(O)ccc1F)c1c[nH]c2ncc(Br)cc12 [Compound P-0068, (5-Bromo-1H-pyrrolo[2,3-b]pyridin-3-yl)-(2-fluoro-5-hydroxy-phenyl)-methanone] |
| ≤ 10 | ≤ 10 | ≤ 10 | ≤ 10 | ≤ 10 |  | Oc1cccc(Cc2c[nH]c3ncc(-c4cccs4)cc23)c1F [Compound P-0052, 2-Fluoro-3-(5-thiophen-2-yl-1H-pyrrolo[2,3-b]pyridin-3-ylmethyl)-phenol] |
| ≤ 10 | ≤ 10 | ≤ 10 | ≤ 10 | ≤ 10 |  | Cc1c(O)cccc1C(=O)c1c[nH]c2ncc(Br)cc12 [Compound P-0055, (5-Bromo-1H-pyrrolo[2,3-b]pyridin-3-yl)-(3-hydroxy-2-methyl-phenyl)-methanone] |
